Tested on: 324938-238-R-J1-PDC complex spheroid growth, % test/control
Test: Anticancer human tumor 324938-238-R-J1-PDC patient-derived bladder carcinoma cell line growth inhibition [AhR]
Conditions: for IC50: curve of first compound; for viability, T/C: stronger effect = lower value
Method in brief: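 Complex tumor spheroids co-cultured with HUVEC and human MSC stroma; AhR antagonists tested in combination with standard-of-care and investigational agents. Top concentration at or near clinical Cmax (else 10 microM), half-log dilutions; growth expressed as percent test/control.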

[1] = second compound 0.1 µM, first compound 0.0316 µM
[2] = second compound 0.1 µM, first compound 0.1 µM
[3] = second compound 0.1 µM, first compound 0.316 µM
[4] = second compound 0.1 µM, first compound 1 µM
[5] = second compound 0.1 µM, first compound 3.16 µM
[6] = second compound 0.1 µM, first compound 10 µM
[7] = second compound 0.316 µM, first compound 0.0316 µM
[8] = second compound 0.316 µM, first compound 0.1 µM
[9] = second compound 0.316 µM, first compound 0.316 µM
[10] = second compound 0.316 µM, first compound 1 µM
[11] = second compound 0.316 µM, first compound 3.16 µM
[12] = second compound 0.316 µM, first compound 10 µM
[13] = second compound 1 µM, first compound 0.0316 µM
[14] = second compound 1 µM, first compound 0.1 µM
[15] = second compound 1 µM, first compound 0.316 µM
[16] = second compound 1 µM, first compound 1 µM
[17] = second compound 1 µM, first compound 3.16 µM
[18] = second compound 1 µM, first compound 10 µM
[19] = second compound 3.16 µM, first compound 0.0316 µM
[20] = second compound 3.16 µM, first compound 0.1 µM
[21] = second compound 3.16 µM, first compound 0.316 µM
[22] = second compound 3.16 µM, first compound 1 µM
[23] = second compound 3.16 µM, first compound 3.16 µM
[24] = second compound 3.16 µM, first compound 10 µM
[25] = second compound 10 µM, first compound 0.0316 µM
[26] = second compound 10 µM, first compound 0.1 µM
[27] = second compound 10 µM, first compound 0.316 µM
[28] = second compound 10 µM, first compound 1 µM
[29] = second compound 10 µM, first compound 3.16 µM
[30] = second compound 10 µM, first compound 10 µM
[31] = second compound 0.1 µM, first compound 0.00316 µM
[32] = second compound 0.1 µM, first compound 0.01 µM
[33] = second compound 0.316 µM, first compound 0.00316 µM
[34] = second compound 0.316 µM, first compound 0.01 µM
[35] = second compound 1 µM, first compound 0.00316 µM
[36] = second compound 1 µM, first compound 0.01 µM
[37] = second compound 3.16 µM, first compound 0.00316 µM
[38] = second compound 3.16 µM, first compound 0.01 µM
[39] = second compound 10 µM, first compound 0.00316 µM
[40] = second compound 10 µM, first compound 0.01 µM
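Note: spheroids exposed to agents for seven days before viability read.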

SMILES | IC50 (second compound 0.1 µM) [µM] | IC50 (second compound 0.316 µM) [µM] | IC50 (second compound 1 µM) [µM] | IC50 (second compound 3.16 µM) [µM] | IC50 (second compound 10 µM) [µM] | viability, T/C [1] [%] | viability, T/C [2] [%] | viability, T/C [3] [%] | viability, T/C [4] [%] | viability, T/C [7] [%] | viability, T/C [8] [%] | viability, T/C [9] [%] | viability, T/C [10] [%] | viability, T/C [13] [%] | viability, T/C [14] [%] | viability, T/C [15] [%] | viability, T/C [16] [%] | viability, T/C [19] [%] | viability, T/C [20] [%] | viability, T/C [21] [%] | other results
CC(C)c1c(-c2ccccc2)nc2c(C#N)c[nH]n2c1=O + Cc1ccccc1N=Nc1ccc(NC(=O)c2ccnn2C)c(C)c1 | > 10 | > 10 | > 10 | > 10 | > 10 | 101 | 91.3 | 95.5 | 83.9 | 87.3 | 92.9 | 90.7 | 81.6 | 80.1 | 91.8 | 76 | 80.5 | 80.1 | 81.4 | 64.9 | viability, T/C [5]: 92.1%; viability, T/C [6]: 73.9%; viability, T/C [11]: 75.3%; viability, T/C [12]: 68%; viability, T/C [17]: 68.3%; viability, T/C [18]: 65.8%; viability, T/C [22]: 67.5%; viability, T/C [23]: 65.7%; viability, T/C [24]: 56%; viability, T/C [25]: 70.8%; viability, T/C [26]: 75.2%; viability, T/C [27]: 79.4%; viability, T/C [28]: 65.1%; viability, T/C [29]: 54.4%; viability, T/C [30]: 61%
CC1COCCN1c1cc(-c2ccnn2C)c2ccnc(-c3ccn[nH]3)c2n1 (stereo not given) + Cc1ccccc1N=Nc1ccc(NC(=O)c2ccnn2C)c(C)c1 | 0.277 | 0.379 | 0.245 | 0.309 | 0.324 | 102 | 74.7 | 48.8 | 32.7 | 88.8 | 71.5 | 53.6 | 30.4 | 87.6 | 65.8 | 46.6 | 31.5 | 73.8 | 67.5 | 49.8 | viability, T/C [31]: 102%; viability, T/C [32]: 104%; viability, T/C [33]: 104%; viability, T/C [34]: 90.8%; viability, T/C [35]: 95%; viability, T/C [36]: 95.4%; viability, T/C [37]: 78.8%; viability, T/C [38]: 88.3%; viability, T/C [22]: 31.6%; viability, T/C [39]: 74.3%; viability, T/C [40]: 81.2%; viability, T/C [25]: 71%; viability, T/C [26]: 64.4%; viability, T/C [27]: 50.8%; viability, T/C [28]: 35%
COc1ccc([C@@H](O)c2cc(-c3ncnc4cc(N5CCOCC5)ccc34)c(F)cc2Cl)nn1 + Cc1ccccc1N=Nc1ccc(NC(=O)c2ccnn2C)c(C)c1 | > 10 | > 10 | > 10 | 9.01 | 7.49 | 109 | 110 | 98.5 | 96.8 | 94.3 | 99.9 | 89.8 | 83.4 | 100 | 87.6 | 93 | 84.1 | 83.5 | 83.5 | 75.7 | viability, T/C [5]: 80.7%; viability, T/C [6]: 65.2%; viability, T/C [11]: 74.9%; viability, T/C [12]: 58.6%; viability, T/C [17]: 72.2%; viability, T/C [18]: 55.4%; viability, T/C [22]: 65.1%; viability, T/C [23]: 57.4%; viability, T/C [24]: 48.8%; viability, T/C [25]: 72.7%; viability, T/C [26]: 81.1%; viability, T/C [27]: 72.7%; viability, T/C [28]: 66.6%; viability, T/C [29]: 59.2%; viability, T/C [30]: 47%
COc1cccc2c1C(=O)c1c(O)c3c(c(O)c1C2=O)CC(O)(C(=O)CO)CC3OC1CC(N)C(O)C(C)O1 (stereo not given) + Cc1cncc(-c2nc(NCCc3c[nH]c4ccccc34)c3ncn(C(C)C)c3n2)c1 | 0.336 | 0.367 | 0.291 | 0.181 | < 0.0316 | 84.2 | 95.7 | 52.8 | 0.98 | 65.7 | 94.2 | 57.3 | 0.94 | 90.7 | 102 | 46.3 | 0.36 | 81.8 | 62.1 | 38.9 | viability, T/C [5]: 0.76%; viability, T/C [6]: 0.41%; viability, T/C [11]: 0.57%; viability, T/C [12]: 0.38%; viability, T/C [17]: 1.27%; viability, T/C [18]: 0.47%; viability, T/C [22]: 0.31%; viability, T/C [23]: 1.98%; viability, T/C [24]: 0.43%; viability, T/C [25]: 4.55%; viability, T/C [26]: 12.7%; viability, T/C [27]: 1.27%; viability, T/C [28]: 0.29%; viability, T/C [29]: 0.45%; viability, T/C [30]: 0.62%
Nc1ncn(C2CC(O)C(CO)O2)c(=O)n1 (stereo not given) + Cc1cncc(-c2nc(NCCc3c[nH]c4ccccc34)c3ncn(C(C)C)c3n2)c1 | > 1 | > 1 | > 1 | > 1 | < 0.00316 | 101 | 85.2 | 128 | 103 | 135 | 92.9 | 80.8 | 161 | 127 | 125 | 84.8 | 98.2 | 104 | 76.9 | 100 | viability, T/C [31]: 120%; viability, T/C [32]: 86.4%; viability, T/C [33]: 111%; viability, T/C [34]: 103%; viability, T/C [35]: 93.4%; viability, T/C [36]: 107%; viability, T/C [37]: 83.5%; viability, T/C [38]: 76.6%; viability, T/C [22]: 112%; viability, T/C [39]: 4.98%; viability, T/C [40]: 1.77%; viability, T/C [25]: 6.15%; viability, T/C [26]: 3.98%; viability, T/C [27]: 4.54%; viability, T/C [28]: 7.74%
